The source of these data is patent publication US7718651B2, “Inhibitors of FtsZ and uses thereof” (priority 2002, dated 2010).

The test system of this experiment is single drug resistant strains of M. tuberculosis. Description: microbe, parasite or virus in culture. It is filed as cell-based. Particulars: for MIC: Mycobacterium tuberculosis.

≈ marks a conversion by molar mass, not a printed value. Where two headings read alike, the source gives them in different places. Some results are limits rather than exact numbers.

Take `CCOC(=O)Nc1cc(NC(C)CCCN(CC)CC)c2nc(-c3ccccc3)c(-c3ccccc3)nc2n1` (stereo not shown) [SRI-3072, [8-(4-Diethylamino-1-methyl-butylamino)-2,3-diphenyl-pyrido[2,3-b]pyrazin-6-yl]-carbamic acid ethyl ester]: the “susceptibility of singly resistant strains” value is reported as “uniformly susceptible”. Besides, the MIC (read-out: MIC, EMB-R) is at most 0.1 µg/mL. Also, the MIC (read-out: MIC, INH-R) was 0.78 µg/mL (≈ 1.48 µM). Also, the MIC (read-out: MIC, KM-R) was at most 0.1 µg/mL. Besides, the MIC (read-out: MIC, RMP-R) was at most 0.1 µg/mL.
Take `CCOC(=O)Nc1cc2c(c(N)n1)N=C(c1ccccc1)CCN2` [SRI-7614, (1-Amino-8-phenyl-6,7-dihydro-5H-2,5,9-triaza-benzocyclohepten-3-yl)-carbamic acid ethyl ester]: the “susceptibility of singly resistant strains” value is “uniformly susceptible”. Further, where the note is “read-out: MIC, CS-R”, the MIC was 3.12 µg/mL (≈ 9.59 µM). Further, the MIC (read-out: MIC, EMB-R) turned out to be 3.12 µg/mL (≈ 9.59 µM). In addition, the MIC (read-out: MIC, INH-R) was 6.25 µg/mL (≈ 19.2 µM). Further, for the setting “read-out: MIC, KM-R”, the MIC came to 6.25 µg/mL (≈ 19.2 µM). The MIC (read-out: MIC, PZA-R) amounted to 3.12 µg/mL (≈ 9.59 µM). Besides, the MIC (read-out: MIC, RMP-R) stood at 3.12 µg/mL (≈ 9.59 µM). The MIC (read-out: MIC, TAC-R) was found to be 3.12 µg/mL (≈ 9.59 µM).
